PMC12118722, “Self-assembled peptide-dye nanostructures for in vivo tumor imaging and photodynamic toxicity” (npj Imaging, 2024)

What was measured:
[1] = methylene blue reference value used for the relative measurement; no reference given; cited from earlier work
Description: The optical and photoacoustic properties of the assemblies were also studied (Fig. 4). When the nanospheres and branched NPs were scanned from 400 to 700 nm for optical absorbance, both adopted a similar peak absorbance to methylene blue at 662 nm. When the peaks were normalized, there was no 614 nm shoulder growth where dimerization typically forms. While the iRGD-BNP maintained methylene blue’s distinct blue color, the iRGD-SNP samples shifted to a slightly greener color. The quantum yield for the branched NPs and the nanospheres relative to methylene blue (52%) were 43% and 31%, respect ...

HEK 293T cells = test: Competitive inhibition flow cytometry with αVβ5 primary antibodies; format: cell-based, human
Experimental: The peptide formulations were further challenged via competitive inhibition flow cytometry studies to confirm their specific interactions with integrin receptors (Fig. 3b, c). In addition to labeling as before, some cells were pre-incubated with αVβ5 primary antibodies before iRGD-BNPs or iRGD-SNPs. […] There was no observable change in fluorescence from the presence of the antibodies for HEK 293-T cells.
300,000 cells were seeded overnight. For the competitive inhibition samples, cell cultures were first treated with αVβ5 mABs ([…]) for 90 min. The cells were then treated with the iRGD-BNPs, iR GD-SNPs, or methylene blue. The cells were detached, collected at 700xG, and the media was decanted while the cells were resuspended in ice cold buffer for flow cytometry using the APC channel.

[2] = Ex vivo biodistribution by methylene blue fluorescence of harvested organs; settings: ex vivo IVIS fluorescence after euthanasia
Description: The vital organs of the subjects were harvested after euthanasia and analyzed for fluorescence from the methylene blue for biodistribution studies.
After the subject was euthanized, the heart, lungs, liver, spleen, kidneys, and tumor were harvested and rinsed in PBS. The organs were then imaged for fluorescence signal via IVIS Perkin-Elmer Illumination and LivingImage software.

CN(C)c1ccc2nc3ccc(=[N+](C)C)cc-3sc2c1 [methylene blue]
quantum yield of reference [1]: 52%
change in fluorescence with αVβ5 antibody pre-incubation (HEK 293T cells): no change in fluorescence increase
fluorescence in vital organs [2]: nonspecific and low fluorescence in all of the vital organs
